One experiment concerns NCI-H460. Kind of experiment: NCI-60 drug screen (SRB), NSCLC line NCI-H460. Type of experiment: cell-based, human. Particulars: for LC50 (concentration killing 50% of cells) / GI50: Homo sapiens. The procedure: (§1) As a primary screening, seven selected compounds were submitted to the National Cancer Institute (NCI) cell lines screen for evaluation of their anticancer activity. From the data analysis, it follows that approximately 95% of the actives from the 60 cell lines screen can be identified. The detailed methods used for the 60 cell lines panel have been described elsewhere [54]–[59]. Briefly, cellular protein levels were determined after 48 hours of drug exposure by SRB colorimetry. Through the use of a time zero cell control, the cell growth can be determined for each cell line thus allowing calculations of GI50, TGI, and LC50. Comparison to plates not exposed to drug permits determination of concentration and times of exposure conferring GI50, TGI, and LC50. […] By these criteria, seven compounds reported from our compounds bank were all active and passed on for evaluation in the full panel of 60 human tumor cell lines. The panel is organized into nine subpanels representing diverse histology: leukemia, melanoma, and cancers of the lung, colon, kidney, ovary, breast, prostate, and central nervous system.

A further experiment has as its system NCI-H23. Kind of experiment: NCI-60 drug screen (SRB), NSCLC line NCI-H23. Type of experiment: cell-based, human. To be noted: for GI50 / CC50: Homo sapiens; for CC50: read-out: LC50 (the source's name). The protocol:
as §1

The test system of a further experiment is EKVX. Kind of experiment: NCI-60 drug screen (SRB), NSCLC line EKVX. Type of experiment: cell-based, human. Particulars: for LC50 / GI50: Homo sapiens. The protocol: as §1
In experiment [1] the test system is Oct-4- and Nanog-overexpressed A549 clone (A3). Kind of experiment: MTT cytotoxicity assay, A3 cells. The experiment is classed as cell-based. Particulars: Homo sapiens, 48 h of drug exposure. The procedure: (§2) Non-small cell lung cancer cells A549 and Oct-4- and Nanog-overexpressed A549 clone (clone #3; A3), presented the properties of cancer stem-like cells, as well as epithelial-mesenchymal transdifferentiation, according to our previous study. They were grown in the same conditions as RPMI 1640 media supplemented with 10% fetal bovine serum (FBS), 100 units/mL penicillin, […] streptomycin, 1 mM sodium pyruvate, 2 mM l-glutamine and 1% non-essential amino acid (NEAA) in a humidified atmosphere with 5% CO2 at 37°C. Normal fibroblast cells HEL299 from American Type Culture Collection (ATCC) were grown in MEM media supplemented with 10% FBS, 100 units/mL penicillin, […] streptomycin, 1 mM sodium pyruvate, 2 mM l-glutamine and 1% NEAA, in a humidified atmosphere with 5% CO2 at 37°C.
(§3) The tetrazolium reagent (MTT; 3-(4,5-dimethylthiazol-2-yl)-2,5-diphenyl-tetrazolium bromide, USB) was designed to yield a colored formazan upon metabolic reduction by viable cells, [61]. Approximately 5×10^4 cells were plated onto each well of a 24-well plate and incubated in 5% CO2 at 37°C for 24 hours. To assess the in vitro cytotoxicity, each compound was dissolved in DMSO and prepared immediately before the experiments and then was diluted into the complete medium before being added to cell cultures. Test compounds were then added to the culture medium in various designated concentrations. After 48 hours, an amount of 100 µl of MTT was added to each well, and the samples were incubated at 37°C for 2 h. 100 µl DMSO was added to each well. The absorbency at 560 nm and reference absorbency at 670 nm were measured using an ELISA reader.

The test system of another experiment is NCI-H322M. Kind of experiment: NCI-60 drug screen (SRB), NSCLC line NCI-H322M. The experiment is classed as cell-based, human. To be noted: for LC50 / GI50: Homo sapiens. The procedure: as §1
The test system of a further experiment is HEL299 cells. Kind of experiment: MTT cytotoxicity assay, HEL299 normal fibroblasts. The experiment is classed as cell-based. To be noted: Homo sapiens, HEL 299, 48 h of drug exposure. The procedure:
as §2, §3
A general note: Formazan colour is commonly taken as a measure of viable cells.

The mark [2] stands for this setting: 48 hours drug exposure, SRB, read-out: GI50.
[3] abbreviates: NCI in vitro 60-cell lines Drug Screen, read-out: -Log GI50 (converted).

Like-named read-outs stand apart in the source and are kept apart here. A value given as a limit tells only on which side of the number the result lay.

The TGI is the concentration at which net growth stops. Lower therefore signals greater sensitivity of the cells. In general, GI50 refers to the concentration giving 50% growth inhibition. In general, LC50 refers to the concentration that kills 50% of the test population. What is called IC50 is the concentration that gives 50% inhibition. Low readings indicate inhibition by little substance, high ones a need for much substance. Consider `CN(C)CC(=O)Nc1ccc2c(c1)C(=O)c1cc(NC(=O)CN(C)C)ccc1C2=O` [NSC746364], for which the TGI with NCI-H460 (48 hours drug exposure, SRB) amounted to 3.35 µM; in the experiment with NCI-H23 (48 hours drug exposure, SRB) it was 28.1 µM; in the experiment on EKVX (48 hours drug exposure, SRB) it was 31.4 µM; in the experiment on NCI-H322M (48 hours drug exposure, SRB) it was 4.91 µM. Further, in the experiment with NCI-H460 (48 hours drug exposure, SRB), the LC50 (concentration killing 50% of cells) worked out at 8.2 µM. Further, the concentration for 50% growth inhibition (GI50) in the experiment on NCI-H460 (setting [2]) was 1.37 µM; with NCI-H460 (setting [3]) it was 1.38 µM; with NCI-H23 (setting [2]), 11 µM; with NCI-H23 (setting [3]), 11 µM; in the experiment with EKVX (setting [2]), 12.8 µM; in the experiment with EKVX (setting [3]), 12.9 µM. Besides, the GI50 with NCI-H322M (setting [2]) and in the experiment with NCI-H322M (setting [3]) was 1.86 µM in each case. In addition, the CC50 with NCI-H23 (48 hours drug exposure, SRB) turned out to be 71.8 µM. Besides, the LC50 came to 77.4 µM in the experiment with EKVX (48 hours drug exposure, SRB) and 83.1 µM in the experiment with NCI-H322M (48 hours drug exposure, SRB). Also, the IC50 in experiment [1] was determined as 5.9 µM; in the experiment on HEL299 cells, 5.67 µM.

In the case of `CCN(CC)CCC(=O)Nc1ccc2c(c1)C(=O)c1cc(NC(=O)CCN(CC)CC)ccc1C2=O` [NSC746365], the TGI was 4.85 µM in the experiment with NCI-H460 (48 hours drug exposure, SRB); 3.55 µM with NCI-H23 (48 hours drug exposure, SRB); 11.0 µM in the experiment on EKVX (48 hours drug exposure, SRB). Moreover, the LC50 (concentration killing 50% of cells) with NCI-H460 (48 hours drug exposure, SRB) was > 100 µM. For the same compound, the GI50 with NCI-H460 (setting [2]) was 1.9 µM; in the experiment with NCI-H460 (setting [3]), 1.91 µM; in the experiment with NCI-H23 (setting [2]), 1.53 µM; in the experiment with NCI-H23 (setting [3]), 1.51 µM; with EKVX (setting [2]), 3.05 µM; in the experiment with EKVX (setting [3]), 3.02 µM. Besides, the GI50 with NCI-H322M (setting [2]) is 2.85 µM; with NCI-H322M (setting [3]) it was 2.82 µM. For the same compound, the CC50 in the experiment on NCI-H23 (48 hours drug exposure, SRB) came out at 8.27 µM. Besides, the LC50 with EKVX (48 hours drug exposure, SRB) is 34.6 µM; in the experiment on NCI-H322M (48 hours drug exposure, SRB) it was 4.71 µM. The IC50 in experiment [1] stood at 5.21 µM; in the experiment on HEL299 cells, 7.19 µM.

With `O=C(CCN1CCCC1)Nc1ccc2c(c1)C(=O)c1cc(NC(=O)CCN3CCCC3)ccc1C2=O` [NSC746366], the concentration for total growth inhibition (TGI) with NCI-H460 (48 hours drug exposure, SRB) was >100 µM; in the experiment on NCI-H23 (48 hours drug exposure, SRB), 17.3 µM; in the experiment with EKVX (48 hours drug exposure, SRB) it was 20.4 µM; in the experiment on NCI-H322M (48 hours drug exposure, SRB), 10.9 µM. Also, the LC50 (concentration killing 50% of cells) in the experiment on NCI-H460 (48 hours drug exposure, SRB) is > 100 µM. The GI50 in the experiment with NCI-H460 (setting [2]) is 2.69 µM; in the experiment with NCI-H460 (setting [3]), 2.69 µM; in the experiment on NCI-H23 (setting [2]), 2.38 µM; in the experiment with NCI-H23 (setting [3]) it was 2.4 µM; in the experiment with EKVX (setting [2]), 3.57 µM; with EKVX (setting [3]) it was 3.55 µM. The values for the 50% growth inhibitory concentration (GI50) in the experiment on NCI-H322M (setting [2]) and in the experiment with NCI-H322M (setting [3]) were 1.81 µM and 1.82 µM, respectively. For the same compound, the CC50 with NCI-H23 (48 hours drug exposure, SRB) was > 100 µM. For the same compound, the LC50 was > 100 µM with EKVX (48 hours drug exposure, SRB) and 42 µM in the experiment on NCI-H322M (48 hours drug exposure, SRB). Besides, the IC50 is 5.77 µM in experiment [1] and 13.4 µM in the experiment with HEL299 cells.

For `CN(C)CCCSc1nc2ccc3c(c2[nH]1)C(=O)c1ccccc1C3=O` [NSC747854], the TGI amounted to 12.8 µM in the experiment with NCI-H460 (48 hours drug exposure, SRB); 19.7 µM with NCI-H23 (48 hours drug exposure, SRB); 20.1 µM with EKVX (48 hours drug exposure, SRB); 20.6 µM with NCI-H322M (48 hours drug exposure, SRB). Besides, the GI50 in the experiment with NCI-H460 (setting [2]) was 2.13 µM; in the experiment on NCI-H460 (setting [3]), 2.14 µM; in the experiment on NCI-H23 (setting [2]), 5.73 µM; in the experiment on NCI-H23 (setting [3]) it was 5.75 µM; with EKVX (setting [2]) it was 4.2 µM; in the experiment on EKVX (setting [3]) it was 4.17 µM. The GI50 is 0.72 µM in the experiment on NCI-H322M (setting [2]) and 0.724 µM in the experiment with NCI-H322M (setting [3]). The CC50 in the experiment with NCI-H23 (48 hours drug exposure, SRB) came to 46.9 µM. For the same compound, the IC50 is 5.88 µM in experiment [1] and 27.8 µM in the experiment on HEL299 cells.

For the compound `Cc1ccc(C(=O)Nc2c(NC(=O)CCl)ccc3c2C(=O)c2ccccc2C3=O)cc1` [NSC749232], the TGI in the experiment on NCI-H460 (48 hours drug exposure, SRB) was found to be 14.1 µM; in the experiment with NCI-H23 (48 hours drug exposure, SRB) it was 8.28 µM; in the experiment on EKVX (48 hours drug exposure, SRB), 14.9 µM; in the experiment on NCI-H322M (48 hours drug exposure, SRB), 13.7 µM. In the experiment with NCI-H460 (48 hours drug exposure, SRB), this compound gave an LC50 (concentration killing 50% of cells) of 34.1 µM. The GI50 was 5.81 µM in the experiment with NCI-H460 (setting [2]); 5.75 µM in the experiment on NCI-H460 (setting [3]); 1.78 µM in the experiment on NCI-H23 (setting [2]); 1.78 µM in the experiment with NCI-H23 (setting [3]); 1.98 µM with EKVX (setting [2]); 2 µM in the experiment on EKVX (setting [3]). Further, the GI50 in the experiment with NCI-H322M (setting [2]) was 3.76 µM; in the experiment on NCI-H322M (setting [3]), 3.8 µM. The CC50 in the experiment on NCI-H23 (48 hours drug exposure, SRB) is 31.4 µM. The LC50 was > 100 µM in the experiment on EKVX (48 hours drug exposure, SRB) and 45.4 µM with NCI-H322M (48 hours drug exposure, SRB). The half-inhibitory concentration (IC50) in experiment [1] is 4.85 µM; with HEL299 cells it was 27.1 µM.

As for `CN1CCN(Cc2nc3ccc4c(c3[nH]2)C(=O)c2ccccc2C4=O)CC1` [NSC749235], the TGI with NCI-H460 (48 hours drug exposure, SRB) was 15.2 µM; in the experiment on NCI-H23 (48 hours drug exposure, SRB) it was 30.1 µM; with EKVX (48 hours drug exposure, SRB), 28.8 µM; with NCI-H322M (48 hours drug exposure, SRB), 43.3 µM. Besides, in the experiment with NCI-H460 (48 hours drug exposure, SRB), the LC50 (concentration killing 50% of cells) stood at 45.1 µM. Besides, the GI50 in the experiment on NCI-H460 (setting [2]) is 3.79 µM; in the experiment with NCI-H460 (setting [3]) it was 3.8 µM; in the experiment with NCI-H23 (setting [2]) it was 10.7 µM; in the experiment on NCI-H23 (setting [3]), 10.7 µM; in the experiment with EKVX (setting [2]), 6.69 µM; in the experiment with EKVX (setting [3]), 6.76 µM. The 50% growth inhibitory concentration (GI50) was 8.7 µM in the experiment on NCI-H322M (setting [2]) and 8.71 µM with NCI-H322M (setting [3]). Moreover, in the experiment on NCI-H23 (48 hours drug exposure, SRB), the CC50 amounted to 84.8 µM. The LC50 in the experiment on EKVX (48 hours drug exposure, SRB) was > 100 µM; with NCI-H322M (48 hours drug exposure, SRB), > 100 µM. Also, the IC50 worked out at 7.67 µM in experiment [1] and 19.6 µM in the experiment with HEL299 cells.

(Values after publication PMC3581553, “New Approaches of PARP-1 Inhibitors in Human Lung Cancer Cells and Cancer Stem-Like Cells by Some Selected Anthraquinone-Derived Small Molecules” (PLoS ONE, 2013).)
